Results reported in US6800651B2 (Eli Lilly and Company, priority 2000, dated 2004).
Where two headings read alike, the source gives them in different places.

What was measured:
mGlu2 receptor = mGlu2 receptor (Homo sapiens, UniProt Q14416); test: Potentiation of glutamate-induced increase in intracellular calcium with a mGluR2 expressing cell line (FLIPR); assay type: cell-based; set-up: expressed in transfected cells; host or cells: RGT cells (co-transfected with GLAST), stably transfected with Galpha15; details: for Emax / Emax at 1 µM / Emax at 3 µM: read-out: % Maximal Response (mean ± SD, n = 2); for Emax at 1 µM: 1 μM compound, no agonist, glutamate series 30 μM to 10 nM; for Emax at 3 µM: 3 μM compound, Buffer (no agonist)
Sequence of mGlu2 receptor (Q14416 19-872): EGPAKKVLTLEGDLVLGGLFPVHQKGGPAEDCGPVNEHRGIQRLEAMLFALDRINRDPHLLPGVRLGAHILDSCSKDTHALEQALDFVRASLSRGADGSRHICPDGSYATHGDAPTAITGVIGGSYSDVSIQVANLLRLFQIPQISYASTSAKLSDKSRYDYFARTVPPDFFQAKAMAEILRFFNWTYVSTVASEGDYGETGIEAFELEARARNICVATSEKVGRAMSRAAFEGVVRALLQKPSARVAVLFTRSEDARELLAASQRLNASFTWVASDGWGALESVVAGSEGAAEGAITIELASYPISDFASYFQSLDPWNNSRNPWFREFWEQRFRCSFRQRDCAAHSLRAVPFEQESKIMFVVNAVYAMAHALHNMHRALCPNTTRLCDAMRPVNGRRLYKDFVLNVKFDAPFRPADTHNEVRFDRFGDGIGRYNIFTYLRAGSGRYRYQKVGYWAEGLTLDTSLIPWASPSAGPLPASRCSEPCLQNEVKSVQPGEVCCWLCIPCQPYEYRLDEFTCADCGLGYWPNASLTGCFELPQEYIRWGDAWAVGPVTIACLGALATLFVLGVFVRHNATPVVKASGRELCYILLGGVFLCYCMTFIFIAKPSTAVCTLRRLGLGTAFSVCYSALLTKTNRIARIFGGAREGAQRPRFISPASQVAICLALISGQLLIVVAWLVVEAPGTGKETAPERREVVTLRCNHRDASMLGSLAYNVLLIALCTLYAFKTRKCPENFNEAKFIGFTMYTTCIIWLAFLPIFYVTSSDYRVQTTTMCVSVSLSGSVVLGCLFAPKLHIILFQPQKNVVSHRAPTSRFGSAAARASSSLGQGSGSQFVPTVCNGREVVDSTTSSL
Method: Potentiation of Glutamate-Induced Increase in Intracellular Calcium with a mGluR2 Expressing Cell Line.
Cell lines expressing human mGlu2 receptors were derived as previously described (Desai, Burnett, Mayne, Schoepp, Mol. Pharmacol. 48, 648-657, 1995) and cultured in DMEM with 5% dialyzed fetal bovine serum, 1 mM glutamine, 1 mM sodium pyruvate, 50 μg/ml Geneticin G418, and 0.2 mg/ml hygromycin B. Confluent cultures were passaged weekly. […] The RGT cell line expressing the mGluR2 receptors was stably transfected with the promiscuous G-protein, Galpha15 to change the signaling pathway to the mGlu2 receptor to one that could be easily measured through release of intracellular calcium. Thus, intracellular calcium levels were monitored before and after the addition of drugs on a Fluorometric Imaging Plate Reader (i.e. FLIPR, Molecular Devices). The following buffer was used throughout as an assay buffer: 10 mM KCl, 138 mM NaCl, 5 mM Ca Cl2, 1 mM MgCl2, 4 mM NaH2PO4, 10 mM Glucose, 10 mM HEPES, pH 7.4. Cells that had been plated 48 h prior at a density of 30-40,000 cells per well in a 96-well plate were loaded with a calcium-sensitive dye for 90 min at 25° C. Fluo-3 (2 mM in DMSO, Molecular Probes) were mixed with a equal volume of 10% pluronic acid in DMSO, and diluted to 8 μM into the buffer described above containing 10% fetal bovine serum to make the loading buffer. Following loading of the cells, the loading buffer was removed and replaced with assay buffer prior to drug addition and monitoring on the FLIPR.

mice = test: Electroshock-induced seizures (tonic extensor seizures); assay type: in vivo, mouse; details: electroshock 30 minutes later, percentage of mice protected from seizures
Method: Application of electrical stimulation by corneal electrodes to mice can induce tonic hindlimb-extensor seizures. Blockade of tonic extensor seizures induced by electroshock is considered predictive for drugs which block seizure propagation and may be effective in preventing various seizures in humans, including epileptic seizures.
Vehicle or a dose of a test drug are administered to groups of 5 to 10 mice each. Thirty minutes later, electroshock (10 mA, 0.2 sec duration) is administered by transcorneal electrodes. […] The data are reported as the percentage of mice which are protected from seizures.

[1] = 10 nM Glutamate + 1 μM compound
[2] = 30 nM Glutamate + 1 μM compound
[3] = 100 nM Glutamate + 1 μM compound
[4] = 300 nM Glutamate + 1 μM compound
[5] = 10 μM Glutamate + 1 μM compound
[6] = 30 μM Glutamate + 1 μM compound

COc1ccccc1Oc1cccc(N(Cc2cccnc2)S(=O)(=O)CC(F)(F)F)c1 [Example 1, N-(3-(2-Methoxyphenoxy)phenyl)-N-(2,2,2-trifluoroethylsulfonyl)pyrid-3-ylmethylamine] showed an Emax (mGlu2 receptor; [1]) of -0.3 ± 0.2%, an Emax (mGlu2 receptor; [2]) of 2.2 ± 1.3% and an Emax (mGlu2 receptor; [3]) of 1.5 ± 1.2%. It also gave an Emax (mGlu2 receptor; [4]) of 42.5 ± 4.3%, an Emax (mGlu2 receptor; 1 μM Glutamate + 1 μM compound) of 79.2 ± 14.6% and an Emax at 1 µM (mGlu2 receptor) of 0.1 ± 0.1%. For the same compound, the Emax (mGlu2 receptor; 3 μM Glutamate + 1 μM compound) was 112 ± 10.3%, the Emax (mGlu2 receptor; [5]) was 108 ± 10.7% and the “% Maximal Glutamate Response (as defined by 30 μM Glutamate) mean ± SD” value (mGlu2 receptor; 20 μM compound + 0.5 μM L-glutamate) was 85.5 ± 5.8%. The “% Maximal Glutamate Response (as defined by 30 μM Glutamate) mean ± SD” value (mGlu2 receptor; 20 μM compound alone) was 2.3 ± 0.8% and the Emax (mGlu2 receptor; [6]) was 117 ± 4.3%.

Compound COc1ccccc1Oc1ccc(N(Cc2cccnc2)S(=O)(=O)CC(F)(F)F)cc1Cl [Example 9, N-(4-(2-Methoxyphenoxy)-3-chlorophenyl)-N-(2,2,2-trifluoroethylsulfonyl)pyrid-3-ylmethylamine] has an Emax (mGlu2 receptor; [1]) of 2.4 ± 0.3%, an Emax (mGlu2 receptor; [2]) of 4.7 ± 0.4% and an Emax (mGlu2 receptor; [3]) of 20.5 ± 4.3%. The Emax (mGlu2 receptor; [4]) was 60 ± 10.6%, the Emax (mGlu2 receptor; 1 μM Glutamate + 1 μM compound) was 93.1 ± 2.5% and the Emax at 1 µM (mGlu2 receptor) was 4.2 ± 2.7%. It also gave an Emax (mGlu2 receptor; 3 μM Glutamate + 1 μM compound) of 102 ± 8.1%, an Emax (mGlu2 receptor; [5]) of 103 ± 6.2% and an Emax (mGlu2 receptor; [6]) of 108 ± 12.3%.

In the case of CCS(=O)(=O)N(Cc1cccnc1)c1cccc(-c2ccc(C#N)cc2)c1 [Example 590], the “Percent Protection” value (mice; 30 mg/kg ip) is reported as 60% and the “Percent Protection” value (mice; 100 mg/kg ip) is reported as 100%.

Work on O=S(=O)(CC(F)(F)F)N(Cc1cccnc1)c1ccc(Oc2ccccc2)cc1 [Example 22, N-(4-(Phenoxy)phenyl)-N-(2,2,2-trifluoroethylsulfonyl)pyrid-3-ylmethylamine] yielded an Emax (mGlu2 receptor; 1 nM APDC + 3 μM compound) of 0.1 ± 0.7%, an Emax (mGlu2 receptor; 1 nM DCG IV + 3 μM compound) of -0.1 ± 0.6% and an Emax (mGlu2 receptor; 30 nM APDC + 3 μM compound) of 0.5 ± 1.5%. It also gave an Emax (mGlu2 receptor; 30 nM DCG IV + 3 μM compound) of 11.1 ± 6.1%, an Emax (mGlu2 receptor; 100 nM APDC + 3 μM compound) of 0.2 ± 0.6% and an Emax (mGlu2 receptor; 100 nM DCG IV + 3 μM compound) of 83.3 ± 10.5%. The Emax (mGlu2 receptor; 300 nM APDC + 3 μM compound) was 28.4 ± 1.7%, the Emax (mGlu2 receptor; 300 nM DCG IV + 3 μM compound) was 133 ± 5.5% and the Emax (mGlu2 receptor; 1 μM APDC + 3 μM compound) was 92 ± 3.4%. For the same compound, the Emax (mGlu2 receptor; 1 μM DCG IV + 3 μM compound) was 141 ± 5.9%, the Emax (mGlu2 receptor; 3 μM APDC + 3 μM compound) was 114 ± 0.8% and the Emax (mGlu2 receptor; 3 μM DCG IV + 3 μM compound) was 153 ± 2.8%. It also gave an Emax at 3 µM (mGlu2 receptor; APDC series) of 4.7 ± 0.4%, an Emax at 3 µM (mGlu2 receptor; DCG IV series) of 3.7 ± 1.4% and an Emax (mGlu2 receptor; 10 μM APDC + 3 μM compound) of 119 ± 4%. It also gave an Emax (mGlu2 receptor; 10 μM DCG IV + 3 μM compound) of 148 ± 1.5%, an Emax (mGlu2 receptor; 30 μM APDC + 3 μM compound) of 120 ± 10% and an Emax (mGlu2 receptor; 30 μM DCG IV + 3 μM compound) of 138 ± 7.1%.

Compound CCS(=O)(=O)N(Cc1cccnc1F)c1ccc(Oc2ccc(F)cc2F)cc1 [Example 615, N-(4-(2,4-Difluorophenoxy)phenyl)-N-(ethanesulfonyl)-2-fluoropyrid-3-ylmethylamine] has a melting point of 110 to 112 °C.

In the case of N[C@@H](CCC(=O)O)C(=O)O [Glutamate, L-glutamate, reference compound], the “% Maximal Glutamate Response (as defined by 30 μM Glutamate) mean ± SD” value (mGlu2 receptor; 0.5 μM L-glutamate alone) is reported as 1.9 ± 1.0%.

O=S(=O)(CC(F)(F)F)N(Cc1cccnc1)c1cccc(Oc2ccccc2O)c1 [Example 23, N-(3-(2-Hydroxyphenoxy)phenyl)-N-(2,2,2-trifluoroethylsulfonyl)pyrid-3-ylmethylamine] showed a melting point of 57.5 to 60 °C.
